Experimental data reported in PubChem BioAssay (NCI).
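GI50 = concentration required for 50% inhibition of growth. TGI: concentration producing complete growth inhibition.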

Experiments:
Test in all cases: growth of human tumour cells (NCI), 384-well format
[1] = system: RXF 393 renal
[2] = system: NCI-H226 lung
[3] = system: DU-145 prostate
[4] = system: A549 NSCLC
[5] = system: M14 melanoma
[6] = system: HL-60(TB) leukemia
[7] = system: MCF7 breast
[8] = system: OVCAR-8 ovarian
[9] = system: KM12 colon
[10] = system: MDA-MB-468 breast
[11] = system: CAKI-1 renal
[12] = system: 786-0 renal
[13] = system: SF-539 CNS
[14] = system: UACC-62 melanoma
[15] = system: UO-31 renal
[16] = system: RPMI-8226 leukemia
[17] = system: ACHN renal
[18] = system: HCT-15 colon
[19] = system: BT-549 breast
[20] = system: U251 glioblastoma
[21] = system: HS 578T breast
[22] = system: TK-10 renal
[23] = system: COLO 205 colon
[24] = system: SK-MEL-28 melanoma
[25] = system: OVCAR-4 ovarian
[26] = system: MDA-MB-231 breast
[27] = system: EKVX NSCLC
[28] = system: PC-3 prostate
[29] = system: SNB-19 CNS
[30] = system: SK-OV-3 ovarian
[31] = system: MALME-3M melanoma
[32] = system: K-562 leukemia
[33] = system: HOP-62 NSCLC
[34] = system: SK-MEL-5 melanoma
[35] = system: NCI-H522 lung
[36] = system: HCC-2998 colon
[37] = system: CCRF-CEM leukemia
[38] = system: HOP-92 NSCLC
[39] = system: SF-268 CNS
[40] = system: SF-295 CNS
[41] = system: HCT-116 colon
[42] = system: T-47D breast
[43] = system: NCI-H460 NSCLC
[44] = system: MDA-MB-435 melanoma
[45] = system: NCI-H322M lung
[46] = system: NCI-H23 lung
[47] = system: UACC-257 melanoma
[48] = system: NCI/ADR-RES ovarian
[49] = system: SN12C renal
[50] = system: SNB-75 CNS
[51] = system: LOX IMVI melanoma
[52] = system: OVCAR-5 ovarian
[53] = system: MOLT-4 leukemia
[54] = system: HT29 colon
[55] = system: SW-620 colon
[56] = system: IGROV1 ovarian
[57] = system: OVCAR-3 ovarian
[58] = system: A498 renal

Q: What does the source list for COc1cc2nc(-c3cc(F)ccc3O)nc(N[C@@H]3CNC[C@H]3C(C)(C)O)c2cc1OC?
A: GI50 [1]: 1560 nM; TGI [1]: 2910 nM; GI50 [2]: 1400 nM; TGI [2]: 2760 nM; GI50 [3]: 1570 nM; TGI [3]: 2990 nM; GI50 [4]: 1510 nM; TGI [4]: 2910 nM; GI50 [5]: 1830 nM; TGI [5]: 3250 nM; GI50 [6]: 1820 nM; TGI [6]: 3240 nM; GI50 [7]: 1570 nM; TGI [7]: 2950 nM; GI50 [8]: 1690 nM; TGI [8]: 3090 nM; GI50 [9]: 1340 nM; TGI [9]: 2640 nM; GI50 [10]: 1770 nM; TGI [10]: 3170 nM; GI50 [11]: 1350 nM; TGI [11]: 2660 nM; GI50 [12]: 1530 nM; TGI [12]: 2870 nM; GI50 [13]: 1260 nM; TGI [13]: 2540 nM; GI50 [14]: 1620 nM; TGI [14]: 2990 nM; GI50 [15]: 1810 nM; TGI [15]: 3220 nM; GI50 [16]: 1830 nM; TGI [16]: 3250 nM; GI50 [17]: 1750 nM; TGI [17]: 3180 nM; GI50 [18]: 1910 nM; TGI [18]: 3370 nM; GI50 [19]: 1310 nM; TGI [19]: 2590 nM; GI50 [20]: 1860 nM; TGI [20]: 3280 nM; GI50 [21]: 1740 nM; TGI [21]: 3130 nM; GI50 [22]: 1630 nM; TGI [22]: 3050 nM; GI50 [23]: 1240 nM; TGI [23]: 2520 nM; GI50 [24]: 2010 nM; TGI [24]: 3440 nM; GI50 [25]: 2390 nM; TGI [25]: 3880 nM; GI50 [26]: 1400 nM; TGI [26]: 2700 nM; GI50 [27]: 1460 nM; TGI [27]: 2790 nM; GI50 [28]: 1560 nM; TGI [28]: 2920 nM; GI50 [29]: 1790 nM; TGI [29]: 3210 nM; GI50 [30]: 1820 nM; TGI [30]: 3240 nM; GI50 [31]: 1600 nM; TGI [31]: 2960 nM; GI50 [32]: 1270 nM; TGI [32]: 2550 nM; GI50 [33]: 1220 nM; TGI [33]: 2490 nM; GI50 [34]: 1500 nM; TGI [34]: 2850 nM; GI50 [35]: 1040 nM; TGI [35]: 2220 nM; GI50 [36]: 970 nM; TGI [36]: 2170 nM; GI50 [37]: 1410 nM; TGI [37]: 2730 nM; GI50 [38]: 1150 nM; TGI [38]: 2380 nM; GI50 [39]: 434 nM; TGI [39]: 1620 nM; GI50 [40]: 1880 nM; TGI [40]: 3300 nM; GI50 [41]: 1110 nM; TGI [41]: 2370 nM; GI50 [42]: 2460 nM; TGI [42]: 3940 nM; GI50 [43]: 1470 nM; TGI [43]: 2890 nM; GI50 [44]: 1950 nM; TGI [44]: 3390 nM; GI50 [45]: 1630 nM; TGI [45]: 3020 nM; GI50 [46]: 1440 nM; TGI [46]: 2770 nM; GI50 [47]: 1710 nM; TGI [47]: 3100 nM; GI50 [48]: 2240 nM; TGI [48]: 4990 nM; GI50 [49]: 1480 nM; TGI [49]: 2810 nM; GI50 [50]: 1250 nM; TGI [50]: 2510 nM; GI50 [51]: 1390 nM; TGI [51]: 2710 nM; GI50 [52]: 1670 nM; TGI [52]: 3110 nM; GI50 [53]: 1530 nM; TGI [53]: 2870 nM; GI50 [54]: 1650 nM; TGI [54]: 3060 nM; GI50 [55]: 1820 nM; TGI [55]: 3240 nM; GI50 [56]: 507 nM; TGI [56]: 1640 nM; GI50 [57]: 1820 nM; TGI [57]: 3230 nM; GI50 [58]: 1650 nM; TGI [58]: 3020 nM
